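Exposure lasted 48 hours, with cells grown in 96-well plates and compounds tested at five concentrations. At the GI50, growth is halved.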 Active and inactive are the calls of the source. No stated cut-off is given here; in the data, active = GI50 up to about 1.1 µM and inactive = higher.
Experiments:
Assay in all cases: growth of human tumour cells (NCI), 48 h
OVCAR-4 = test system: OVCAR-4
SF-268 = test system: SF-268
SF-295 = test system: SF-295
MOLT-4 = test system: MOLT-4
SK-MEL-28 = test system: SK-MEL-28
SK-OV-3 = test system: SK-OV-3
KM12 = test system: KM12
COLO 205 = test system: COLO 205
786-0 = test system: 786-0
HOP-92 = test system: HOP-92
UACC-62 = test system: UACC-62
OVCAR-5 = test system: OVCAR-5
CCRF-CEM = test system: CCRF-CEM
CAKI-1 = test system: CAKI-1
A549 = test system: A549
UACC-257 = test system: UACC-257
EKVX = test system: EKVX
A498 = test system: A498
HCC 2998 = test system: HCC 2998

Row | SMILES | GI50 (OVCAR-4) | GI50 (SF-268) | GI50 (SF-295) | GI50 (MOLT-4) | GI50 (SK-MEL-28) | GI50 (SK-OV-3) | GI50 (KM12) | GI50 (COLO 205) | GI50 (786-0) | GI50 (HOP-92) | GI50 (UACC-62) | GI50 (OVCAR-5) | GI50 (CCRF-CEM) | GI50 (CAKI-1) | GI50 (A549) | GI50 (UACC-257) | GI50 (EKVX) | GI50 (A498) | GI50 (HCC 2998)
1 | C(=N\OCc1ccccc1)/c1ncccc1C1OCCO1 | > 100 µM (inactive) | > 100 µM (inactive) | > 100 µM (inactive) | > 100 µM (inactive) | > 100 µM (inactive) | > 100 µM (inactive) | > 100 µM (inactive) | > 100 µM (inactive) | > 100 µM (inactive) | > 100 µM (inactive) | > 100 µM (inactive) | > 100 µM (inactive) | > 100 µM (inactive) | > 100 µM (inactive) | > 100 µM (inactive) | > 100 µM (inactive) | > 100 µM (inactive) | – | –
2 | C=C1CCc2occ(C)c2C2C1C1=C(CC(C)C1=O)C1OC12C (stereo not drawn) | > 100 µM (inactive) | > 100 µM (inactive) | > 100 µM (inactive) | > 100 µM (inactive) | > 100 µM (inactive) | > 100 µM (inactive) | > 100 µM (inactive) | > 100 µM (inactive) | > 100 µM (inactive) | > 100 µM (inactive) | 52 µM (inactive) | 21.8 µM (inactive) | > 100 µM (inactive) | – | > 100 µM (inactive) | > 100 µM (inactive) | > 100 µM (inactive) | > 100 µM (inactive) | > 100 µM (inactive)
3 | Cc1cccc2c1Oc1cc(Cl)ccc1C2NC(=O)CN(C)C (stereo not drawn) | 53.5 µM (inactive) | 74.3 µM (inactive) | – | 29.2 µM (inactive) | 27.1 µM (inactive) | 73.8 µM (inactive) | – | 33.5 µM (inactive) | 14.5 µM (inactive) | – | 24.3 µM (inactive) | > 100 µM (inactive) | 49.1 µM (inactive) | – | > 100 µM (inactive) | 31.6 µM (inactive) | 26.5 µM (inactive) | – | 34.8 µM (inactive)
4 | COc1ccc(NC(=O)C2C(=O)N(c3ccc(OC)cc3)C(=O)/C2=N\N)cc1 (stereo not drawn) | – | > 100 µM (inactive) | > 100 µM (inactive) | > 100 µM (inactive) | > 100 µM (inactive) | – | > 100 µM (inactive) | > 100 µM (inactive) | > 100 µM (inactive) | > 100 µM (inactive) | > 100 µM (inactive) | > 100 µM (inactive) | > 100 µM (inactive) | – | > 100 µM (inactive) | > 100 µM (inactive) | > 100 µM (inactive) | > 100 µM (inactive) | > 100 µM (inactive)
5 | c1ccc2c(c1)N=C(c1ccc3ccccc3c1)CC(c1cccc3ccccc13)S2 (stereo not drawn) | 33.6 µM (inactive) | 48.3 µM (inactive) | 47.1 µM (inactive) | 11.4 µM (inactive) | 83.4 µM (inactive) | > 100 µM (inactive) | 18.9 µM (inactive) | 68.7 µM (inactive) | 44.1 µM (inactive) | – | 21 µM (inactive) | > 100 µM (inactive) | 12.6 µM (inactive) | 55.8 µM (inactive) | 48 µM (inactive) | 56.6 µM (inactive) | 61.4 µM (inactive) | 27.5 µM (inactive) | 15.1 µM (inactive)
6 | CC(C)CCC[C@@H](C)[C@H]1CC[C@H]2[C@@H]3CC=C4CC(OCCCCN(O)CCCSC5OC(CO)C(O)C(O)C5O)CC[C@]4(C)[C@H]3CC[C@]12C (stereo partly drawn) | > 100 µM (inactive) | 52.7 µM (inactive) | > 100 µM (inactive) | 34 µM (inactive) | > 100 µM (inactive) | > 100 µM (inactive) | 33.5 µM (inactive) | 25.6 µM (inactive) | 18 µM (inactive) | > 100 µM (inactive) | > 100 µM (inactive) | > 100 µM (inactive) | 26.4 µM (inactive) | > 100 µM (inactive) | 42.2 µM (inactive) | > 100 µM (inactive) | > 100 µM (inactive) | > 100 µM (inactive) | –
7 | CC(=O)OCCOCNC(=S)N/N=C/c1ccc2ccccc2n1 | 63 µM (inactive) | 34.9 µM (inactive) | 44.6 µM (inactive) | > 100 µM (inactive) | 70.1 µM (inactive) | 43.1 µM (inactive) | 55.7 µM (inactive) | 26.5 µM (inactive) | 39.4 µM (inactive) | – | 21.8 µM (inactive) | 14.3 µM (inactive) | 54 µM (inactive) | – | 33 µM (inactive) | 48.9 µM (inactive) | 32.7 µM (inactive) | > 100 µM (inactive) | 31.7 µM (inactive)
8 | C/C=C(\C)c1cc(O)c(C)c2c1Oc1cc(O)c(Cl)c(C)c1C(=O)O2 | 16.7 µM (inactive) | 30.5 µM (inactive) | 16.7 µM (inactive) | – | 22.4 µM (inactive) | – | 20.9 µM (inactive) | 25.3 µM (inactive) | 25.6 µM (inactive) | – | – | 16.6 µM (inactive) | – | 27.4 µM (inactive) | 31.6 µM (inactive) | 21.5 µM (inactive) | 26.8 µM (inactive) | – | 13 µM (inactive)
9 | CC(C)N(C(=O)C12C3C4C5(C#N)C3C1(C#N)C5C42C#N)C(C)C (stereo not drawn) | > 100 µM (inactive) | > 100 µM (inactive) | > 100 µM (inactive) | > 100 µM (inactive) | > 100 µM (inactive) | > 100 µM (inactive) | > 100 µM (inactive) | > 100 µM (inactive) | > 100 µM (inactive) | – | > 100 µM (inactive) | > 100 µM (inactive) | > 100 µM (inactive) | – | > 100 µM (inactive) | > 100 µM (inactive) | > 100 µM (inactive) | > 100 µM (inactive) | > 100 µM (inactive)
10 | COc1ccc(OC)c(NCC#N)c1 | > 100 µM (inactive) | > 100 µM (inactive) | > 100 µM (inactive) | > 100 µM (inactive) | > 100 µM (inactive) | > 100 µM (inactive) | > 100 µM (inactive) | > 100 µM (inactive) | > 100 µM (inactive) | > 100 µM (inactive) | > 100 µM (inactive) | – | > 100 µM (inactive) | – | > 100 µM (inactive) | > 100 µM (inactive) | > 100 µM (inactive) | > 100 µM (inactive) | > 100 µM (inactive)
11 | CC(=O)OCCOCNC(=S)N/N=C/c1cc([N+](=O)[O-])ccc1O | 84.5 µM (inactive) | 77.4 µM (inactive) | > 100 µM (inactive) | – | > 100 µM (inactive) | > 100 µM (inactive) | > 100 µM (inactive) | 75 µM (inactive) | > 100 µM (inactive) | > 100 µM (inactive) | 69.8 µM (inactive) | > 100 µM (inactive) | 56.6 µM (inactive) | – | > 100 µM (inactive) | > 100 µM (inactive) | > 100 µM (inactive) | > 100 µM (inactive) | 72.1 µM (inactive)
12 | CCN1CCC(O)(/C=C/c2ccc(Cl)cc2)C(C(=O)/C=C/c2ccc(Cl)cc2)C1 (stereo not drawn) | 29.6 µM (inactive) | 30.4 µM (inactive) | 20.6 µM (inactive) | 23.9 µM (inactive) | 21.6 µM (inactive) | 23 µM (inactive) | 15.2 µM (inactive) | 71.4 µM (inactive) | 20 µM (inactive) | – | 17.3 µM (inactive) | 30.8 µM (inactive) | 22.7 µM (inactive) | – | 25.4 µM (inactive) | 17.5 µM (inactive) | 43.9 µM (inactive) | 17.3 µM (inactive) | 18.4 µM (inactive)
13 | C=CCCC12CCCC(=O)C1Sc1ccc3ccccc3c12 (stereo not drawn) | 28.6 µM (inactive) | 31.3 µM (inactive) | 19.4 µM (inactive) | 13.2 µM (inactive) | 20.7 µM (inactive) | 21.1 µM (inactive) | 7.38 µM (inactive) | 12.9 µM (inactive) | 17.9 µM (inactive) | – | 11.9 µM (inactive) | 27.5 µM (inactive) | 17.7 µM (inactive) | 9.04 µM (inactive) | 10.2 µM (inactive) | 17.1 µM (inactive) | 21.6 µM (inactive) | 13.1 µM (inactive) | 14.1 µM (inactive)
14 | CC1C(=O)N(C)C2(CO)C(=O)O[C@H](C)C12O (stereo partly drawn) | > 100 µM (inactive) | > 100 µM (inactive) | 28.1 µM (inactive) | > 100 µM (inactive) | > 100 µM (inactive) | > 100 µM (inactive) | > 100 µM (inactive) | > 100 µM (inactive) | > 100 µM (inactive) | < 0.01 µM (active) | > 100 µM (inactive) | > 100 µM (inactive) | – | > 100 µM (inactive) | > 100 µM (inactive) | – | > 100 µM (inactive) | – | > 100 µM (inactive)
15 | CC1CC2OC(=O)C3CC(O)CC(=C23)[C@@]12C[C@@H](c1ccoc1)OC2=O (stereo partly drawn) | > 100 µM (inactive) | > 100 µM (inactive) | > 100 µM (inactive) | > 100 µM (inactive) | > 100 µM (inactive) | > 100 µM (inactive) | > 100 µM (inactive) | > 100 µM (inactive) | > 100 µM (inactive) | > 100 µM (inactive) | > 100 µM (inactive) | > 100 µM (inactive) | > 100 µM (inactive) | – | > 100 µM (inactive) | > 100 µM (inactive) | > 100 µM (inactive) | – | > 100 µM (inactive)
16 | C=CCC1[C@@H](C(C)(C)C(C(C)=O)C(=O)C(=O)OC)OC(C(C)(C)C)N1C(=O)OC (stereo partly drawn) | > 100 µM (inactive) | > 100 µM (inactive) | > 100 µM (inactive) | 24.6 µM (inactive) | > 100 µM (inactive) | > 100 µM (inactive) | > 100 µM (inactive) | > 100 µM (inactive) | > 100 µM (inactive) | 48.5 µM (inactive) | > 100 µM (inactive) | 61.5 µM (inactive) | 49 µM (inactive) | – | > 100 µM (inactive) | > 100 µM (inactive) | > 100 µM (inactive) | > 100 µM (inactive) | > 100 µM (inactive)
